The record followed here is US20230174493A1, “Solid Dispersions of Amorphous 3,4-Diphenyl-4,5-Dihydro-1H-Pyrazole Derivatives, Compositions Comprising them and Uses Thereof as Cannabinoid CB1 Receptor Inhibitors” (INVERSAGO PHARMA INC., priority 2020, published 2023).

Structures are written as SMILES.

Data set [1] is described as follows: Pharmacokinetic properties in Beagle dogs, single oral dose compared with intravenous administration. The note with it: dog, in vivo, 2 mg/kg, fasted. On the procedure: Pharmacokinetic properties were measured in Beagle dogs. Administration was done orally and compared with intravenous administration (2 mg/kg, in DMSO/tetraglycol/PEG400/water, 10:20:25:45). Each formulation was tested as a single dose on three (3) animals except for F6(b), which was tested on five (5) animals. Dogs were sampled at times 0, 1 h, 4 h, 8 h, 12 h, 24 h, 36 h, 48 h, and 72 h to give full time-concentration profiles. All tests were carried out with fasted dogs except test on normal dogs using F-SEDDS, which was carried on fed dogs. The results are as presented as an average between the tested animals.

Data set [2] can be described thus: Oral bioavailability of crystalline form (development efforts).
A short description of data set [3]: Solubility of crystalline form (development efforts).

In general, AUC(0-inf) refers to total exposure, with the tail of the curve extrapolated. A lower AUC(0-inf) goes with low exposure. In the case of `C/C(N)=N/C(=N\S(=O)(=O)c1ccc(C(F)(F)F)cc1)N1C[C@H](c2ccccc2)C(c2ccc(Cl)cc2)=N1` [Compound 1], the C0 in data set [1] (i.v. 2 mg/kg in DMSO/tetraglycol/PEG400/water 10:20:25:45, Normal dogs (about 11 kg)) worked out at 2220 ng/mL; in data set [1] (i.v. 2 mg/kg in DMSO/tetraglycol/PEG400/water 10:20:25:45, Small dogs (about 7.5 kg)), 1820 ng/mL. The compound also showed an area under the curve AUC(0-inf) in data set [1] (i.v. 2 mg/kg, Normal dogs (about 11 kg)) of 15400 ng·h/mL. Further, the half-life in data set [1] (i.v. 2 mg/kg, Normal dogs (about 11 kg), read-out: T½ (converted)) was 5.88 h. Further, in data set [2], the Oral bioavailability entry is “very poor oral bioavailability”. The Solubility entry in data set [3] is recorded as “essentially insoluble”.
